Data from patent publication US20250381277A1, “COMPOSITIONS AND METHODS FOR TREATMENT OF NEUROLOGICAL DISORDERS” (Dana-Farber Cancer Institute, Inc., priority 2022, published 2025).
“Also recorded” adds a separate entry of the source.

Test system: 5XFAD mice
Test: Weekly intravenous or intranasal cyclic RGD (Cilengitide) administration to 5XFAD mice: microglial proinflammatory responses
Format: in vivo, mouse
Details: vs saline
Protocol: (A) Schematic outline of cyclic RGD (Cilengitide) administration. Weekly intravenous injection (25 mg/kg) or intranasal delivery (10 mg/kg) of Cilengitide or vehicle control (saline) into 5XFAD mice starting at 6-mo of age for 1 or 2 months. Microglial proinflammatory responses were analyzed after 1-mo or 2-mo treatment. […] IV injection of Cilengitide for 1 month reduced the percentage of CD11c^+ microglia by 50% and decreased CD11c^+ microglial TNF-α production by ˜50% in 5XFAD mice (n=3). […]. […] IV injection of Cilengitide for 2 months reduced the percentage of CD11c+ microglia by 60% and decreased CD11c+ microglial TNF-α production by 55% in 5XFAD mice compared with vehicle (saline) treated control mice (n=3). *p<0.05, **p<0.01, ***p<0.001.
Weekly administration of cyclic RGD (Cilengitide) was given intravenously or intranasally to 6-mo old mice, continuing for 1 or 2 months. Microglial proinflammatory responses and Aβ plaque pathology were analyzed after 1-mo or 2-mo of treatment (FIG. 43A).

[1] = intranasal 10 mg/kg weekly, 1 month
[2] = intranasal 10 mg/kg weekly, 2 months

How did the “decrease of CD11c^+ microglial TNF-α production” value (IV 25 mg/kg weekly, 1 month) turn out when `CC(C)[C@H]1C(=O)N[C@@H](CCCN=C(N)N)C(=O)NCC(=O)N[C@@H](CC(=O)O)C(=O)N[C@H](Cc2ccccc2)C(=O)N1C` [Cilengitide] was run?
Its value is about 50%.

And the “reduction of percentage of CD11c^+ microglia” value (IV 25 mg/kg weekly, 1 month)?
Its value is 50%.

And the “decrease of CD11c+ microglial TNF-α production” value (IV 25 mg/kg weekly, 2 months)?
Its value is 55%.

What about the “reduction of percentage of CD11c+ microglia” value (IV 25 mg/kg weekly, 2 months) of the same compound?
The value was 60%.

And the “CD11c^+ microglia (in words)” value [1]?
Its value is “decrease; also recorded: decreased tendency”.

And the “reduction of TNF-α production by CD11c^+ microglia” value [1]?
Its value is about 35%.

What about the “decrease of percentage of CD11c+ microglia” value [2] of the same compound?
The value was 35%.

And the “reduction of TNF-α expression by CD11c+ microglia” value [2]?
The value was about 45%.
